Laboratory results published in ChEMBL document CHEMBL4622937, “Design, synthesis, and biological evaluation of spiroindolines as novel inducers of oligodendrocyte progenitor cell differentiation-Use of a conformation-based hypothesis to facilitate compound design” (Bioorg Med Chem Lett, 2020).
pEC50: −log10 of the molar value.

Assay: Induction of rat oligodendrocyte progenitor cells differentiation assessed as myelin basic protein expression level
Format: functional

## CN1c2cc(F)ccc2CC12CCN(CC1CCOCC1)CC2
  pEC50: 8.00

## O=C1c2cc(C(F)(F)F)ccc2NC12CCN(CC1CCOCC1)CC2
  pEC50: 8.49

## FC(F)(F)c1ccc2c(c1)N(CC1CCOCC1)C1(CCN(CC3CCOCC3)CC1)C2
  pEC50: 7.89

## COC1(CN2CCC3(CC2)Cc2ccc(C(F)(F)F)cc2N3C)CCOCC1
  pEC50: 7.27

## CN1c2ccc(C(F)(F)F)cc2C(=O)C12CCN(CC1CCOCC1)CC2
  pEC50: 8.03

## FC(F)(F)c1ccc2c(c1)CC1(CCN(CC3CCOCC3)CC1)N2
  pEC50: 6.62

## CN1c2cc(C(F)(F)F)ccc2CC12CCN(CC1CCC(F)(F)CC1)CC2
  pEC50: 8.33

## CN1c2cc(C(F)(F)F)ccc2CC12CCN(CC1CCOCC1)CC2
  pEC50: 8.72

## FC(F)(F)c1ccc2c(c1)N(Cc1ccccc1)C1(CCN(CC3CCOCC3)CC1)C2
  pEC50: 8.43

## CC(C)(C)OC(=O)CN1c2cc(C(F)(F)F)ccc2CC12CCN(CC1CCOCC1)CC2
  pEC50: 7.82

## CN1c2ccc(C(F)(F)F)cc2CC12CCN(CC1CCOCC1)CC2
  pEC50: 5.15

## CC(=O)N1c2cc(C(F)(F)F)ccc2CC12CCN(CC1CCOCC1)CC2
  pEC50: 7.22

## COCCN1CCC2(CC1)Cc1ccc(C(F)(F)F)cc1N2C
  pEC50: 6.60

## O=C1c2ccc(C(F)(F)F)cc2NC12CCN(CC1CCOCC1)CC2
  pEC50: 7.27

## CN1c2cc(C(F)(F)F)ccc2CC12CCN(CC1(O)CCOCC1)CC2
  pEC50: 8.24

## COCCCN1CCC2(CC1)Cc1ccc(C(F)(F)F)cc1N2C
  pEC50: 6.62

## CN(C)C(=O)CN1c2cc(C(F)(F)F)ccc2CC12CCN(CC1CCOCC1)CC2
  pEC50: 6.15

## CN1c2cc(C(F)(F)F)ccc2C(=O)C12CCN(CC1CCOCC1)CC2
  pEC50: 8.85

## CN1c2cc(Cl)ccc2CC12CCN(CC1CCOCC1)CC2
  pEC50: 7.72

## OCCN1c2cc(C(F)(F)F)ccc2CC12CCN(CC1CCOCC1)CC2
  pEC50: 7.13
